Literature values as cited in patent publication US20240307296A1, “SUBCUTANEOUS BIODEGRADABLE NALTREXONE IMPLANT AND ACCOMPANYING BEHAVIORAL PROGRAM FOR WEIGHT LOSS IN A PATIENT” (Biocorrx, priority 2017, published 2024).

Test system: fasting insulin levels
Details: in vivo

O=C1CC[C@@]2(O)[C@H]3Cc4ccc(O)c5c4[C@@]2(CCN3CC2CC2)[C@H]1O5 [Naltrexone, N-Cyclopropylmethylnoroxymorphone]
Lowering of fasting insulin levels: up to 40%
